Assay results from US9850283B2, “Macrocyclic inhibitors of the PD-1/PD-L1 and CD80(B7-1)/PD-L1 protein/protein interactions” (BRISTOL-MYERS SQUIBB COMPANY, priority 2013, dated 2017).
Positions of bridges follow the written chain, without caps; N, C: chain ends. Non-standard residues stand in square brackets, D forms with d. Residues, ends and D or L forms follow the SMILES beside them. ξ: configuration not given here. *: point of attachment. Pro(trans-4-cHex) = O=C(O)[C@@H]1C[C@@H](C2CCCCC2)CN1; Pro(trans-4-Ph) = O=C(O)[C@@H]1C[C@@H](c2ccccc2)CN1; Bip = N[C@@H](Cc1ccc(-c2ccccc2)cc1)C(=O)O; Phe(4-F) = N[C@@H](Cc1ccc(F)cc1)C(=O)O; Hyp = O=C(O)[C@@H]1C[C@@H](O)CN1; NMeNle = CCCC[C@H](NC)C(=O)O; NMeA = CN[C@@H](C)C(=O)O; Orn = NCCC[C@H](N)C(=O)O; Dab = NCC[C@H](N)C(=O)O; Dap = NC[C@H](N)C(=O)O; ξP = O=C(O)C1CCCN1; Bn = c1ccc(C*)cc1; Sar = CNCC(=O)O

Columns and labels:
Hu PD-L1/PD-1 = Hu PD-L1/PD-1 (Homo sapiens, UniProt Q9NZQ7); experiment: Cell binding assay Hu PD-L1/PD-1 (Tables 11-13, cell line not given); assay type: cell-based
Sequence of Hu PD-L1/PD-1 (Q9NZQ7 19-290): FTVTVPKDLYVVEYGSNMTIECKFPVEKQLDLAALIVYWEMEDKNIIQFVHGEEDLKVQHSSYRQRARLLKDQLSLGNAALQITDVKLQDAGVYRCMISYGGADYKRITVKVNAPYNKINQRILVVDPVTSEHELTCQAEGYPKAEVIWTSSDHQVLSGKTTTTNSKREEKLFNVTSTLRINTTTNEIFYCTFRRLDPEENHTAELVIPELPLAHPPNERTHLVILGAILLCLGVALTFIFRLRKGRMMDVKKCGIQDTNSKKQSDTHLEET
Protocol: The ability of the macrocyclic peptides of the present disclosure to bind to Jurkat, mouse B cell line (LK35.2), and a human lung adenocarcinoma cell line (L2987) was investigated. Jurkat-PD-1 Cell Binding Assay. Phycoerythrin (PE) was covalently linked to the Ig epitope tag of human PD-L1-Ig and fluorescently-labeled PD-L1-Ig was used for binding studies with a Jurkat cell line over-expressing human PD-1 (Jurkat-PD-1). […] Cells were washed 3× in dPBS. Cells were resuspended in 200 μl of dPBS and binding was measured by flow cytometry. LK35.2-hPD-L1 Cell Binding Assay. Phycoerythrin (PE) was covalently linked to the Ig eptitope tag of human PD-1-Ig and fluorescently-labeled PD-1-Ig was used for binding studies with a mouse B cell line (LK35.2) stably over-expressing human PD-L1 (LK35.2-hPD-L1). Briefly, […] LK35.2-hPD-L1 cells were pre-incubated with inhibitor for 15 m in a 30 μl volume of RPMI supplemented with 2% fetal calf serum. 20 μl of PE-labeled PD-1-Ig (2 nM final), diluted in RPMI supplemented with 2% fetal calf serum, was dispensed on top of cells and inhibitor and binding was allowed to take place for 1 h at room temperature. Cells were washed 3× in dPBS. Cells were resuspended in 200 μl of dPBS and binding was measured by flow cytometry. L2987 Cellomics Cell Binding Assay. Phycoerythrin (PE) was covalently linked to the Ig eptitope tag of human PD-1-Ig and fluorescently-labeled PD-1-Ig was used for binding studies with a human lung adenocarcinoma cell line (L2987) which naturally expresses PD-L1. […] The following day, inhibitors were diluted in serum-free DMEM and 25 μl was dispensed on top of cells. […] Samples were incubated for 1 h at 37° C. followed by 2 washes in dPBS and fixation for 30 m with 4% paraformaldehyde. Samples were further washed 2× in dPBS. Hoechst (final 1 μg/ml) was added to final wash to stain nuclei. Plates were processed using a Cellomics […]®.

Human PD-L1/PD-1 = biological target: T1, Human PD-L1/PD-1 (Homo sapiens, UniProt Q9NZQ7); experiment: HTRF PD-1-Ig/PD-L1-His binding assay (human PD-L1); details: cluster symbol; read-out: HTRF IC50 cluster
T1 construct: made in house; host or cells: HEK293T
T1 sequence (Q9NZQ7 with tags, fused parts or gaps): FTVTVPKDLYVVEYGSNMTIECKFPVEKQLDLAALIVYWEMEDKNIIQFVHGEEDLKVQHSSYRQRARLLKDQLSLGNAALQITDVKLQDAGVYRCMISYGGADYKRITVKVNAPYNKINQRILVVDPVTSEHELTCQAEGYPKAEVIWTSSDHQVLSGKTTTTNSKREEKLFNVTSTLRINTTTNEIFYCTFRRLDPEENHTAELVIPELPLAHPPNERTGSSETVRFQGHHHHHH
Method in brief: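 Soluble PD-1-Ig binding to PD-L1-His measured by HTRF in dPBS with 0.1% BSA and 0.05% Tween-20. Detection used europium cryptate anti-Ig antibody (1 nM final) and APC anti-His antibody (20 nM final) added on top of the binding reaction.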

[1] = biological target: T2, LK35.2-hPD-L1 cells / PE-labeled PD-1-Ig (Homo sapiens, UniProt Q9NZQ7); experiment: LK35.2-hPD-L1 cell binding high-content screening assay; assay type: cell-based; details: cell binding assay, cell line not given; cluster symbol; read-out: CBA IC50 cluster
T2 construct: expressed in transfected cells; host or cells: LK35.2 mouse B cell line
T2 sequence (Q9NZQ7 19-290): as the sequence (Q9NZQ7 19-290) above
Method in brief: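 Mouse LK35.2 B cells stably over-expressing human PD-L1, cultured overnight, treated with compound plus PE-labeled human PD-1-Ig (1 nM final) in RPMI/10% FCS for 1 h at 37 °C. After washing, bound fluorescence quantified by high-content imaging.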

IC50 (Hu PD-L1/PD-1) | IC50 (Human PD-L1/PD-1) | IC50 [1] | SMILES
> 10000 nM | – | – | CCCC[C@H]1C(=O)N(C)[C@@H](CCCC)C(=O)N[C@@H](CCCNC(=N)N)C(=O)N[C@H](C(=O)NCC(N)=O)CSCC(=O)N[C@@H](C)C(=O)N(C)[C@@H](C)C(=O)N[C@@H](CC(N)=O)C(=O)N2CCCC2C(=O)N[C@@H](Cc2cnc[nH]2)C(=O)N[C@@H](CC(C)C)C(=O)N(C)CC(=O)N[C@@H](Cc2c[nH]c3ccccc23)C(=O)N[C@@H](CO)C(=O)N[C@@H](Cc2c[nH]c3ccccc23)C(=O)N1C (stereo partly drawn) [Compound No. 5] ({CH2CO}-A[NMeA]N[ξP]HL[Sar]WSW[NMeNle][NMeNle]RCG-NH2; thioether N-14)
71 nM | – | – | CCCC[C@H]1C(=O)N(C)[C@@H](CCCC)C(=O)N[C@@H](CCCNC(=N)N)C(=O)N[C@H](C(=O)NCC(N)=O)CSCC(=O)N[C@@H](Cc2ccccc2)C(=O)N(C)[C@@H](C)C(=O)N[C@@H](CC(N)=O)C(=O)N[C@@H](C)C(=O)N[C@@H](Cc2cnc[nH]2)C(=O)N[C@@H](CC(C)C)C(=O)N(C)CC(=O)N[C@@H](Cc2c[nH]c3ccccc23)C(=O)N[C@@H](CO)C(=O)N[C@@H](Cc2c[nH]c3ccccc23)C(=O)N1C [Compound No. 9] ({CH2CO}-F[NMeA]NAHL[Sar]WSW[NMeNle][NMeNle]RCG-NH2; thioether N-14)
82 nM | – | – | CCCC[C@H]1C(=O)N(C)[C@@H](CCCC)C(=O)N[C@@H](CCCNC(=N)N)C(=O)N[C@H](C(=O)NCC(N)=O)CSCC(=O)N[C@@H](Cc2ccc(-c3ccccc3)cc2)C(=O)N(C)[C@@H](C)C(=O)N[C@@H](CC(N)=O)C(=O)N2CCC[C@H]2C(=O)N[C@@H](Cc2cnc[nH]2)C(=O)N[C@@H](CC(C)C)C(=O)N(C)CC(=O)N[C@@H](Cc2c[nH]c3ccccc23)C(=O)N[C@@H](CO)C(=O)N[C@@H](Cc2c[nH]c3ccccc23)C(=O)N1C [Compound No. 28] ({CH2CO}-[Bip][NMeA]NPHL[Sar]WSW[NMeNle][NMeNle]RCG-NH2; thioether N-14)
25 nM | – | – | CCCC[C@H]1C(=O)N(C)[C@@H](CCCC)C(=O)N[C@@H](CCCNC(=N)N)C(=O)N[C@@H](C(=O)NCC(N)=O)CSCC(=O)N[C@@H](Cc2ccc(F)cc2)C(=O)N(C)[C@@H](C)C(=O)N[C@@H](CC(N)=O)C(=O)N2CCC[C@H]2C(=O)N[C@@H](Cc2cnc[nH]2)C(=O)N[C@@H](CC(C)C)C(=O)N(C)CC(=O)N[C@@H](Cc2c[nH]c3ccccc23)C(=O)N[C@@H](CO)C(=O)N[C@@H](Cc2c[nH]c3ccccc23)C(=O)N1C [Compound No. 32] ({CH2CO}-[Phe(4-F)][NMeA]NPHL[Sar]WSW[NMeNle][NMeNle]R[dC]G-NH2; thioether N-14)
– | 0.385 to 6.74 nM | 0.158 to 4.71 nM | CCCC[C@H]1C(=O)N(C)[C@@H](CCCC)C(=O)N[C@@H](CCCN)C(=O)N[C@H](C(=O)NCC(N)=O)CSCC(=O)N[C@@H](Cc2ccc(O)cc2)C(=O)N(C)[C@@H](C)C(=O)N[C@@H](CC(N)=O)C(=O)N2CCC[C@H]2C(=O)N[C@@H](CN)C(=O)N[C@@H](CC(C)C)C(=O)N2C[C@H](c3ccccc3)C[C@H]2C(=O)N[C@@H](Cc2c[nH]c3ccccc23)C(=O)N[C@@H](CO)C(=O)N[C@@H](Cc2c[nH]c3ccccc23)C(=O)N1C [Example 14001] ({CH2CO}-Y[NMeA]NP[Dap]L[Pro(trans-4-Ph)]WSW[NMeNle][NMeNle][Orn]CG-NH2; thioether N-14)
– | 0.385 to 6.74 nM | 0.158 to 4.71 nM | CCCC[C@H]1C(=O)N(C)[C@@H](CCCC)C(=O)N[C@@H](CCC(=O)O)C(=O)N[C@H](C(=O)NCC(N)=O)CSCC(=O)N[C@@H](Cc2ccc(O)cc2)C(=O)N(C)[C@@H](C)C(=O)N[C@@H](CC(=O)O)C(=O)N2CCC[C@H]2C(=O)N[C@@H](Cc2c[nH]cn2)C(=O)N[C@@H](CCCCN)C(=O)N2C[C@H](c3ccccc3)C[C@H]2C(=O)N[C@@H](Cc2c[nH]c3ccccc23)C(=O)N[C@@H](CCCCN)C(=O)N[C@@H](Cc2c[nH]c3ccccc23)C(=O)N1C [Example 14002] ({CH2CO}-Y[NMeA]DPHK[Pro(trans-4-Ph)]WKW[NMeNle][NMeNle]ECG-NH2; thioether N-14)
– | 0.385 to 6.74 nM | 0.158 to 4.71 nM | CCCC[C@H]1C(=O)N(C)[C@@H](CCCC)C(=O)N[C@@H](CCCN)C(=O)N[C@H](C(=O)NCC(N)=O)CSCC(=O)N[C@@H](Cc2ccc(O)cc2)C(=O)N(C)[C@@H](C)C(=O)N[C@@H](CC(N)=O)C(=O)N2CCC[C@H]2C(=O)N[C@@H](CN)C(=O)N[C@@H](CC(C)C)C(=O)N2C[C@H](OCc3ccccc3)C[C@H]2C(=O)N[C@@H](Cc2c[nH]c3ccccc23)C(=O)N[C@@H](CO)C(=O)N[C@@H](Cc2c[nH]c3ccccc23)C(=O)N1C [Example 14003] ({CH2CO}-Y[NMeA]NP[Dap]L[Hyp](Bn)WSW[NMeNle][NMeNle][Orn]CG-NH2; thioether N-14)
– | 0.385 to 6.74 nM | 0.158 to 4.71 nM | CCCC[C@H]1C(=O)N(C)[C@@H](CCCC)C(=O)N[C@@H](CCC(=O)O)C(=O)N[C@H](C(=O)NCC(N)=O)CSCC(=O)N[C@@H](Cc2ccc(O)cc2)C(=O)N(C)[C@@H](C)C(=O)N[C@@H](CC(=O)O)C(=O)N2CCC[C@H]2C(=O)N[C@@H](Cc2c[nH]cn2)C(=O)N[C@@H](CCCCN)C(=O)N2C[C@H](OCc3ccccc3)C[C@H]2C(=O)N[C@@H](Cc2c[nH]c3ccccc23)C(=O)N[C@@H](CCCCN)C(=O)N[C@@H](Cc2c[nH]c3ccccc23)C(=O)N1C [Example 14004] ({CH2CO}-Y[NMeA]DPHK[Hyp](Bn)WKW[NMeNle][NMeNle]ECG-NH2; thioether N-14)
– | 0.385 to 6.74 nM | 0.158 to 4.71 nM | CCCC[C@H]1C(=O)N(C)[C@@H](CCCC)C(=O)N[C@@H](CCN)C(=O)N[C@H](C(=O)NCC(N)=O)CSCC(=O)N[C@@H](Cc2ccc(O)cc2)C(=O)N(C)[C@@H](C)C(=O)N[C@@H](CC(N)=O)C(=O)N2CCC[C@H]2C(=O)N[C@@H](Cc2c[nH]cn2)C(=O)N[C@@H](CCC(=O)O)C(=O)N2C[C@H](C3CCCCC3)C[C@H]2C(=O)N[C@@H](Cc2c[nH]c3ccccc23)C(=O)N[C@@H](CCN)C(=O)N[C@@H](Cc2c[nH]c3ccccc23)C(=O)N1C [Example 14005] ({CH2CO}-Y[NMeA]NPHE[Pro(trans-4-cHex)]W[Dab]W[NMeNle][NMeNle][Dab]CG-NH2; thioether N-14)
– | 0.385 to 6.74 nM | 0.158 to 4.71 nM | CCCC[C@H]1C(=O)N(C)[C@@H](CCCC)C(=O)N[C@@H](CCCN)C(=O)N[C@H](C(=O)NCC(N)=O)CSCC(=O)N[C@@H](Cc2ccc(O)cc2)C(=O)N(C)[C@@H](C)C(=O)N[C@@H](CC(N)=O)C(=O)N2CCC[C@H]2C(=O)N[C@@H](CN)C(=O)N[C@@H](CC(C)C)C(=O)N2C[C@H](C3CCCCC3)C[C@H]2C(=O)N[C@@H](Cc2c[nH]c3ccccc23)C(=O)N[C@@H](CO)C(=O)N[C@@H](Cc2c[nH]c3ccccc23)C(=O)N1C [Example 14007] ({CH2CO}-Y[NMeA]NP[Dap]L[Pro(trans-4-cHex)]WSW[NMeNle][NMeNle][Orn]CG-NH2; thioether N-14)
– | 0.385 to 6.74 nM | 0.158 to 4.71 nM | CCCC[C@H]1C(=O)N(C)[C@@H](CCCC)C(=O)N[C@@H](CCC(=O)O)C(=O)N[C@H](C(=O)NCC(N)=O)CSCC(=O)N[C@@H](Cc2ccc(O)cc2)C(=O)N(C)[C@@H](C)C(=O)N[C@@H](CC(=O)O)C(=O)N2CCC[C@H]2C(=O)N[C@@H](Cc2c[nH]cn2)C(=O)N[C@@H](CCCCN)C(=O)N2C[C@H](C3CCCCC3)C[C@H]2C(=O)N[C@@H](Cc2c[nH]c3ccccc23)C(=O)N[C@@H](CCCCN)C(=O)N[C@@H](Cc2c[nH]c3ccccc23)C(=O)N1C [Example 14008] ({CH2CO}-Y[NMeA]DPHK[Pro(trans-4-cHex)]WKW[NMeNle][NMeNle]ECG-NH2; thioether N-14)
